Measurements from ChEMBL document CHEMBL4840373, “Aureonitol Analogues and Orsellinic Acid Esters Isolated from Chaetomium elatum and Their Antineuroinflammatory Activity” (J Nat Prod, 2021).
pIC50: −log10 of the molar value. Active and inactive are the calls of the source. No cut-off for these calls is given here.

Tests used:
[1] = system: BV-2; assay: Cytotoxicity against mouse BV-2 cells assessed as reduction in cell viability at 120 uM after 24 hrs by MTT assay; format: cell-based; details: bv-2, 24 h
[2] = system: BV-2; assay: Antiinflammatory activity against mouse BV-2 cells assessed as inhibition of LPS-induced IL-1beta production at 15 to 60 uM pretreated with compound for 1 hr followed by LPS stimulation for 24 hrs by ELISA; format: functional, cell-based; details: dose 15-60 µM, time 25.0 hrs
[3] = system: BV-2; assay: Antiinflammatory activity against mouse BV-2 cells assessed as inhibition of LPS-induced ROS production at 15 to 60 uM pretreated with compound for 1 hr followed by LPS stimulation for 24 hrs by DCFH-DA staining based fluorescence microscopy; format: functional, cell-based; details: dose 15-60 µM, time 25.0 hrs
[4] = system: BV-2; assay: Antiinflammatory activity against mouse BV-2 cells assessed as inhibition of LPS-induced IL-6 production at 15 to 60 uM pretreated with compound for 1 hr followed by LPS stimulation for 24 hrs by ELISA; format: functional, cell-based; details: dose 15-60 µM, time 25.0 hrs
[5] = system: BV-2; assay: Antiinflammatory activity against LPS-induced mouse BV-2 cells assessed as decrease in iNOS protein expression at 15 to 60 uM pretreated with compound for 1 hr followed by LPS stimulation after 24 hrs by Western blot analysis; format: functional, cell-based; details: dose 15-60 µM, time 25.0 hrs
[6] = system: BV-2; assay: Antiinflammatory activity against LPS-induced mouse BV-2 cells assessed as inhibition of NFkB protein expression at 15 to 60 uM pretreated with compound for 1 hr followed by LPS stimulation after 24 hrs by Western blot analysis; format: functional, cell-based; details: dose 15-60 µM, time 25.0 hrs
[7] = system: BV-2; assay: Antiinflammatory activity against LPS-induced mouse BV-2 cells assessed as inhibition of TLR-4 protein expression at 15 to 60 uM pretreated with compound for 1 hr followed by LPS stimulation after 24 hrs by Western blot analysis; format: functional, cell-based; details: dose 15-60 µM, time 25.0 hrs
[8] = system: BV-2; assay: Antiinflammatory activity against LPS-induced mouse BV-2 cells assessed as decrease in COX2 protein expression at 15 to 60 uM pretreated with compound for 1 hr followed by LPS stimulation after 24 hrs by Western blot analysis; format: functional, cell-based; details: dose 15-60 µM, time 25.0 hrs
[9] = molecular target: T1, Inhibitor of nuclear factor kappa-B kinase subunit beta (Mus musculus) (UniProt O88351); assay: Inhibition of IKappaB phosphorylation in LPS-stimulated mouse BV-2 cells at 15 to 60 uM pretreated with compound for 1 hr followed by LPS stimulation for 24 hrs by Western blot analysis; format: cell-based; details: dose 15-60 µM, time 25.0 hrs
T1 sequence (whole entry): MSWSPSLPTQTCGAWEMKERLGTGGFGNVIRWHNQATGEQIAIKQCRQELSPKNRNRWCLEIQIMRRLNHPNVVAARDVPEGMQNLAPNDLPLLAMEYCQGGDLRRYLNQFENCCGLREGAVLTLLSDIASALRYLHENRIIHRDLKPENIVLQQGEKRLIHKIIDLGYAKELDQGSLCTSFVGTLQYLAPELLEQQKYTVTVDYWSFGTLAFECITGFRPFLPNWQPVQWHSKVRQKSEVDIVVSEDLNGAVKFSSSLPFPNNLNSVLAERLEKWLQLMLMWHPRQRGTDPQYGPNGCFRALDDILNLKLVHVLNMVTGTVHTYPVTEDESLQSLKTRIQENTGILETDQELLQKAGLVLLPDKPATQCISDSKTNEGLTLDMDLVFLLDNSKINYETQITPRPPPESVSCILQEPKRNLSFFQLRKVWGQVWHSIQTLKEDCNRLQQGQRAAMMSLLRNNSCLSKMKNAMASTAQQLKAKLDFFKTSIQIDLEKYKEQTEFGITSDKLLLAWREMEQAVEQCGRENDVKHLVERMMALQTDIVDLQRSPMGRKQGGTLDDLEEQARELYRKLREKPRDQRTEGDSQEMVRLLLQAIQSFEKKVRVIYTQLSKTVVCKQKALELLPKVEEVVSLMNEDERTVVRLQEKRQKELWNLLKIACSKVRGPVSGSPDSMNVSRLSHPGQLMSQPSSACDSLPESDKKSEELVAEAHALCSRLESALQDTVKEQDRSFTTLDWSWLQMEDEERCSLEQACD

[10] = system: BV-2; assay: Antiinflammatory activity in mouse BV-2 cells assessed as inhibition of LPS-induced NO production pretreated with compound for 1 hr followed by LPS stimulation for 24 hrs by Griess reagent based assay; format: functional, cell-based
[11] = system: BV-2; assay: Antiinflammatory activity against mouse BV-2 cells assessed as inhibition of LPS-induced TNFalpha production at 15 to 60 uM pretreated with compound for 1 hr followed by LPS stimulation for 24 hrs by ELISA; format: functional, cell-based; details: dose 15-60 µM, time 25.0 hrs
[12] = molecular target: MAP kinase p38 (Mus musculus) (UniProt P47811+O08911+Q9WUI1+Q9Z1B7); assay: Inhibition of p38 phosphorylation in LPS-stimulated mouse BV-2 cells at 15 to 60 uM pretreated with compound for 1 hr followed by LPS stimulation for 24 hrs by Western blot analysis; format: cell-based; details: dose 15-60 µM, time 25.0 hrs
[13] = system: BV-2; assay: Antiinflammatory activity in mouse BV-2 cells assessed as inhibition of LPS-induced NO production at 15 uM pretreated with compound for 1 hr followed by LPS stimulation for 24 hrs by Griess reagent based assay; format: functional, cell-based; details: time 25.0 hrs

Row | SMILES | Activity [1] | inhibition [13] | other results
1 | C=C/C=C/[C@@H]1OC[C@H](/C=C/[C@@H](O)[C@@H](C)O)[C@H]1O | Non-Toxic |  | 
2 | C=C/C=C/[C@@H]1OC[C@@H](/C=C/C=C/C)[C@@H]1O | Non-Toxic |  | 
3 | C/C=C/C=C/[C@H]1CO[C@@H](/C=C/[C@H](O)CO)[C@@H]1O | Non-Toxic |  | Activity [2]: Active; Activity [3]: Active; Activity [4]: Active; Activity [5]: Active; inhibition [6]: Active; inhibition [7]: Active; Activity [8]: Active; inhibition [9]: Active; pIC50 [10]: 4.78; Activity [11]: Active; inhibition [12]: Active
4 | Cc1cc(O)cc(O)c1C(=O)OC[C@@]1(C[C@@H](C)O)C[C@@H](O)C(=O)O1 | Non-Toxic |  | 
5 | C=C/C=C/[C@@H]1OC[C@H](/C=C/[C@@H](O)[C@H](C)O)[C@H]1O | Non-Toxic |  | 
6 | C=C/C=C/[C@H]1OC[C@@H]([C@@H](O)/C=C/[C@@H](C)O)[C@@H]1O | Non-Toxic | Active | 
7 | Cc1cc(O)cc(O)c1C(=O)OCC(=O)[C@@H](O)[C@H](C)O [GLOBOSUMONE C] | Non-Toxic |  | 
8 | C=C/C=C/[C@@H]1OC[C@H](/C=C/C=C/C)[C@H]1O | Non-Toxic |  | 
9 | C/C=C/C=C/[C@H]1CO[C@@H](/C=C/[C@@H](O)CO)[C@@H]1O | Non-Toxic | Active | 
10 | C=C/C=C/[C@@H]1OC[C@H](/C=C/C[C@H](C)O)[C@H]1O | Non-Toxic | Active | 
